pIC50: −log10 of the molar value.
Assays:
hERG potassium channel = hERG potassium channel (Homo sapiens, UniProt Q12809); assay: Whole-cell patch-clamp (QPatch) of hERG current in HEK293 cells stably expressing hERG; type: cell-based
Experimental: In this study, a whole-cell patch-clamp technique was used to study the inhibitory effect of compounds on hERG potassium channels and to evaluate the risk of ventricular repolarization toxicity.
The HEK293 cell line stably expressing the hERG potassium channel cells was purchased from Creacell, Inc. (Cat. No. A-0320).
The HEK293 cell line that can stably express the hERG potassium channel, was cultured in DMEM medium containing 10% fetal bovine serum and 0.8 mg/mL G418 at 37° C. and 5% carbon dioxide.
Before the test, the cells were separated with TrypLET Express, centrifuged after adding medium to terminate digestion, resuspended the cell count, adjusted the cell density to 2-3×10^6 cells/mL, and then lightly mixed the cells on a room temperature equilibration shaker for 15-20 min.
Electrophysiological assays were performed using a fully automated patch-clamp QPatch 48 X (Sophion) device. The prepared cells were placed on a centrifuge on the Qpatch bench, the cells were washed using multiple centrifugation/suspension methods, and the cell culture medium was replaced with extracellular fluid. Remove an MTP-96 plate and place it in the location of the MTP source. Remove the QPlate chip and subsequently place the QPlate at the Qplate source location. The robotic arm scans the MTP-96 board and the QPlate chip barcode and grabs it to the measuring station. Draw the intracellular and external fluid from the liquid pool and add them to the intracellular fluid pool, cell and test cell pool of the QPlate chip, respectively. At the measuring station, all measuring sites on the QPlate undergo initial quality control. The quality control process includes aspirating the cell suspension from the cell vessel of the centrifuge and positioning the cells to the chip wells via a pressure controller to establish a high-resistance seal and create a whole-cell recording pattern.
The voltage stimulation protocol for whole-cell patch-clamp recording of whole-cell hERG potassium currents is as follows: the cell membrane voltage clamps at −80 mV when a whole-cell closure is formed. The clamping voltage is depolarized from −80 mV to −50 mV for 0.5 s (as a leakage current detection), then steps to 30 mV for 2.5 s, and then quickly recovers to −50 mV for 4 s to excite the tail current of the hERG channel. The data were collected repeatedly every 10 s to observe the effect of the drug on the hERG tail current. −50 mV stimulation at 0.5 s was used as the leakage current detection. The test data is collected by Qpatch and stored in the connected service station.
First, the current after the effect of each drug concentration and the blank control current are normalized 0, and then the inhibition rate corresponding to each drug concentration is calculated.
Calculate the mean and standard error for each concentration and calculate the semi-inhibitory concentration for each compound using the following Formula:
Y=Bottom+(Top−Bottom)/(1+10^((LogIC50−X)*HillSlope)) The above Formula was used to fit the dose-dependent effect nonlinearly, where C represents the test substance concentration, IC50 is the semi-inhibitory concentration, and h represents the Hill coefficient. Curve fitting and IC50 calculations were performed using Graphpad software.

NLRP3 = biological target: T1, NLRP3 (Homo sapiens, UniProt Q96P20); assay: IL-1β (interleukin-1β) secretion in IFN-γ-differentiated, LPS/ATP-stimulated THP-1 cells (half inhibition rate of NLRP3); type: cell-based; conditions: IFN-γ 25 ng/mL, LPS 50 ng/mL, ATP 5 mM
T1 construct: endogenous in cells; host or cells: THP-1 cells (IFN-γ differentiated, LPS primed, ATP stimulated)
Outline: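 IFN-γ-differentiated THP-1 cells primed with LPS (final 50 ng/mL, 4 h, serum-free), then given compound for 1 h and ATP (final 5 mM) for 1 h at 37 °C. Secreted IL-1β in supernatant quantified by sandwich ELISA (mAb Mt175 capture, biotinylated mAb7P10 detection, streptavidin-HRP/TMB, 450 nm).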

[1] = In vivo pharmacokinetic evaluation in mice (IV and PO); conditions: CD-1 mice; for AUC / clearance / half-life / Vd / Cmax: mouse, plasma; for Vd: read-out: Vss
Experimental: CD-1 mice, after fasting overnight (free drinking), are divided into tail vein (IV) and gavage administration (PO) groups. The tail vein administration group collected 0.1 mL of blood from the orbital venous plexus before administration and 5 minutes, 15 minutes, 0.5 hours, 1 hour, 2 hours, 4 hours, 8 hours, 12 hours, and 24 hours after administration, and sample centrifugation at 4° C. for 5 minutes, and stored at −70° C. for testing. […] The plasma parent drug concentration was determined by LC-MS/MS.

T1 sequence (Q96P20 whole entry): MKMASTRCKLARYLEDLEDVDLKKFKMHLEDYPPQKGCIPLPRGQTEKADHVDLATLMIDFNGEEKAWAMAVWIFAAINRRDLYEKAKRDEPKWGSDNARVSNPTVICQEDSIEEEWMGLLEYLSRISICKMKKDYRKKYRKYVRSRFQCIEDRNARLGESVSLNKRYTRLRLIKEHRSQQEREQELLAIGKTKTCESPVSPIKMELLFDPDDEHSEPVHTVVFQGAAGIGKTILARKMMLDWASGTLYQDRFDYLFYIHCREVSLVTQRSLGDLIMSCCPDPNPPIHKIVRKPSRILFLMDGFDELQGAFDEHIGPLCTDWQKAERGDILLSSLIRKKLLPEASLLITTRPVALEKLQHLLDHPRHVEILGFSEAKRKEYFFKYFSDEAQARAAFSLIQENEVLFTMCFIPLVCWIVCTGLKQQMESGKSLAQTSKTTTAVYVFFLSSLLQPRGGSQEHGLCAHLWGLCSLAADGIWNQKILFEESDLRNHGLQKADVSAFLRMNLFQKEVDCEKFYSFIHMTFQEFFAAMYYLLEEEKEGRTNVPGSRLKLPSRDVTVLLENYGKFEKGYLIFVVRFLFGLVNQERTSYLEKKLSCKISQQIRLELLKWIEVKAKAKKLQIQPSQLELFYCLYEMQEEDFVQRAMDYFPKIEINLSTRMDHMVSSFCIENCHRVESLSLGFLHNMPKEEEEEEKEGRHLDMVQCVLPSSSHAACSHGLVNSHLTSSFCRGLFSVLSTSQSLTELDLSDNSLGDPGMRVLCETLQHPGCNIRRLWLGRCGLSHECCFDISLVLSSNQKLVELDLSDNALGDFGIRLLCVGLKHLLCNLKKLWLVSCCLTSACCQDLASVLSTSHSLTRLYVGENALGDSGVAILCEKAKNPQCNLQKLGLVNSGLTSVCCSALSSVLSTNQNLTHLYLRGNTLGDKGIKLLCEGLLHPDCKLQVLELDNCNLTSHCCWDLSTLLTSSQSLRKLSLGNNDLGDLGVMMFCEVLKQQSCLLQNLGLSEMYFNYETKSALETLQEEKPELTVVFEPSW
hERG potassium channel, sequence (Q12809 whole entry): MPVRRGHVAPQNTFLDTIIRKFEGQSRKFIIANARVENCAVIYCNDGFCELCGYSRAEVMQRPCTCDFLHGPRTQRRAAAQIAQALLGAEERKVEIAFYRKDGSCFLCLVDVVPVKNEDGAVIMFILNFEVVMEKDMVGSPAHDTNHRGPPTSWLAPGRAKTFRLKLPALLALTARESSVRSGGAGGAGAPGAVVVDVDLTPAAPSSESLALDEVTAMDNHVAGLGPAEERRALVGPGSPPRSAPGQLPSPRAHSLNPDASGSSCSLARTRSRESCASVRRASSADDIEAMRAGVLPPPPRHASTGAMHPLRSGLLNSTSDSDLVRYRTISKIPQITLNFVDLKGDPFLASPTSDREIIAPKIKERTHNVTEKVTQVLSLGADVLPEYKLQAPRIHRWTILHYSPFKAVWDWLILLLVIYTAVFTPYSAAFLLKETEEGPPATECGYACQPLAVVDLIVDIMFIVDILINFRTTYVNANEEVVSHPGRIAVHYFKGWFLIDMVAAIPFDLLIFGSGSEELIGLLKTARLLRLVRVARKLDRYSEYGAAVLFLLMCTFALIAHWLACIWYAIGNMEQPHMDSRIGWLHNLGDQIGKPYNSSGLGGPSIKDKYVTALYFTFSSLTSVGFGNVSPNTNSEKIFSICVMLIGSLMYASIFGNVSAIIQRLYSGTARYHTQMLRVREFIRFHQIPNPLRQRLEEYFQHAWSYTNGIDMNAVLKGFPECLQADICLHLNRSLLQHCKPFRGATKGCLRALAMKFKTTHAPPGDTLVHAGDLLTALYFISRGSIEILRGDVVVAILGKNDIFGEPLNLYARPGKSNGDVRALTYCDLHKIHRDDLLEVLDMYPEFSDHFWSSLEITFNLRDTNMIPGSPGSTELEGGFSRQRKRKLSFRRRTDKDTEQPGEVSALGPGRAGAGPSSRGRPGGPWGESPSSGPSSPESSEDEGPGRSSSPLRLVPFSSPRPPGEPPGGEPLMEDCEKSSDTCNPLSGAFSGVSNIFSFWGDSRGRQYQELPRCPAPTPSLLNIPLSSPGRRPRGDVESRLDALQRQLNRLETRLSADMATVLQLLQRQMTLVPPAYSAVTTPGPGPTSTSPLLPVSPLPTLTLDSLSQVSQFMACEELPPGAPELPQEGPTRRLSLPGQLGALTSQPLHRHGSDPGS

| pIC50 (NLRP3) | F ([1]; PO, 20 mg/kg) [%] | AUC ([1]; IV, 3 mg/kg) [ng·h/mL] | clearance ([1]; IV, 3 mg/kg) [mL/min/kg] | half-life ([1]; IV, 3 mg/kg) [h] | Vd ([1]; IV, 3 mg/kg) [L/kg] | AUC ([1]; PO, 20 mg/kg) [ng·h/mL] | Cmax ([1]; PO, 20 mg/kg) [ng/mL] | half-life ([1]; PO, 20 mg/kg) [h] | Compound | pIC50 (hERG potassium channel) |
| --- | --- | --- | --- | --- | --- | --- | --- | --- | --- | --- |
| 8.36 | 93.8 | 3250 | 15.1 | 6.07 | 2.35 | 20300 | 6520 | 5.67 | Oc1cc(C(F)(F)F)ccc1-c1nnc(N[C@@H]2CCCC[C@H]2O)c2cc(F)ccc12 [Embodiment 136] | < 4.52 |
| 8.39 | 88.5 | 3160 | 15.8 | 2.81 | 3.56 | 18600 | 3070 | 2.53 | Cc1nc(N[C@@H]2CCCN(C(C)(C)CO)C2)nnc1-c1ccc(C(F)(F)F)cc1O [Embodiment 132] | < 4.52 |
| 8.05 | 78.7 | 3290 | 15.2 | 3.28 | 3.39 | 17200 | 5710 | 2.76 | Cc1nc(N[C@@H]2CCCN([C@@H](C)CO)C2)nnc1-c1ccc(C(F)(F)F)cc1O [Embodiment 147] | < 4.52 |
